Test results taken from ChEMBL document CHEMBL4715920, “Novel Spiropiperidine Allosteric Modulators of Nicotinic Acetylcholine Receptors for Treating Central Nervous System Disorders” (ACS Med Chem Lett, 2021).

Molecular target: Neuronal acetylcholine receptor subunit alpha-7 (Homo sapiens, UniProt P36544)
Assay: Positive allosteric modulation of recombinant human AChR alpha7 expressed in HEK cells co-expressing RIC-3 at -60 mV holding potential treated for 58 sec followed by acetylcholine applied for 1 sec measured potentiation effect by automated patch clamp electrophysiological method
Type: cell-based

Neuronal acetylcholine receptor subunit alpha-7, sequence (P36544 whole entry): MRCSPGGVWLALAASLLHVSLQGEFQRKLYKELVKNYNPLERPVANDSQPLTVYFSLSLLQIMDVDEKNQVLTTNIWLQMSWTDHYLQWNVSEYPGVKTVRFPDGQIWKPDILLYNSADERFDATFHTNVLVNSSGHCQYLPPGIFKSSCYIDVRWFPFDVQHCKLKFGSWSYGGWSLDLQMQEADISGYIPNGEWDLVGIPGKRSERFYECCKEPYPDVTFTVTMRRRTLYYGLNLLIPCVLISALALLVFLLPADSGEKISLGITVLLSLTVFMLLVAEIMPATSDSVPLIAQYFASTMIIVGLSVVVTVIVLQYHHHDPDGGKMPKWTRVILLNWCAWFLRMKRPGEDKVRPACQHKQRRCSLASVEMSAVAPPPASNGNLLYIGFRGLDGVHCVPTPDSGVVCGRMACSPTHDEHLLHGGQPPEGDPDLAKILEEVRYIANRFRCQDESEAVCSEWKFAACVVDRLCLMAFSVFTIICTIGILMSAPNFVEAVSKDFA

| Compound | EC50 |
| --- | --- |
| NS(=O)(=O)N1CCC2(CC1)C[C@H]2COc1cccc(NCC(F)(F)F)n1 | ≤ 100 nM |
| NS(=O)(=O)N1CCC2(CC1)C(COc1ccnc(OC(F)F)c1)C2(F)F (stereo unspecified) | ≤ 100 nM |
| COc1ccc(Cl)cc1NC[C@@H]1CC12CCN(S(N)(=O)=O)CC2 | ≤ 100 nM |
| COc1ccc(Cl)cc1NC(=O)[C@@H]1C(F)(F)C12CCN(S(N)(=O)=O)CC2 | ≤ 100 nM |
| NS(=O)(=O)N1CCC2(CC1)C(COc1noc(-c3ccccc3)n1)C2(F)F (stereo unspecified) | ≤ 100 nM |
| COc1ccc(Cl)cc1SC[C@@H]1CC12CCN(S(N)(=O)=O)CC2 | ≤ 100 nM |
